Test results as given in ChEMBL document CHEMBL5579878, “Allosteric Activation of Protein Phosphatase 5 with Small Molecules” (J Med Chem, 2024).
Numbering of substitutions follows the chain as printed. The source made the active and inactive calls. The rule behind the calls is not given here.

Tests used:
[1] = molecular target: T1, Serine/threonine-protein phosphatase 5 (Homo sapiens, UniProt P53041); assay: Activation of His-tagged human PP5 extracted from Escherichia coli BL21 using pNPP as substrate assessed as increase in phosphatase activity incubated for 30 mins by spectrophotometric analysis
T1 sequence (P53041 whole entry): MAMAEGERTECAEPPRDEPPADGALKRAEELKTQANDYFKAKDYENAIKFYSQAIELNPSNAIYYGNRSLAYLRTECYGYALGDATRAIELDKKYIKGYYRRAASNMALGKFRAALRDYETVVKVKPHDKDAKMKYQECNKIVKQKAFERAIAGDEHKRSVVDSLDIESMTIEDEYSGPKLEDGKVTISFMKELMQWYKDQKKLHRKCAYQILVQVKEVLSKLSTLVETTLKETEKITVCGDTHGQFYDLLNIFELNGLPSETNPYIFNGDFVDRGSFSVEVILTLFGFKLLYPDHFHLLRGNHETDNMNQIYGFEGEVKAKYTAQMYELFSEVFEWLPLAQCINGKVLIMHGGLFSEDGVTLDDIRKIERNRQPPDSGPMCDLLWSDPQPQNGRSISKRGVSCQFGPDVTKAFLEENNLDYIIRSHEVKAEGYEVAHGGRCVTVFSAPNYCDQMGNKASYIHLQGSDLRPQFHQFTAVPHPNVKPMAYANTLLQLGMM

HCT-116 [2] = assay: Effect on AT13387-induced HSF1 expression in human HCT-116 cells at 50 uM incubated for 24 hrs by Western blot analysis; type: functional, cell-based
Homo sapiens = species: Homo sapiens; assay: Inhibition of PP2A (unknown origin) using DiFMUP as substrate at 0.01 to 1000 uM; settings: dose 0.01-1000 µM
[3] = system: T2, Serine/threonine-protein phosphatase 5 (Homo sapiens), P53041 [E428A]; assay: Binding affinity to PP5 E428A mutant (unknown origin) by ITC analysis
T2 sequence (whole entry): T1 sequence (P53041 whole entry) with E428A

[4] = molecular target: T3, Serine/threonine-protein phosphatase 5 (Homo sapiens) (UniProt P53041); assay: Binding affinity to human PP5 extracted from Escherichia coli BL21 using CDC37 as substrate assessed as increase in dephosphorylation of p-CDC37 at S13 residue incubated for 1 hrs by Western blot analysis; settings: filed as activator, dose 5-50 µM
T3 sequence (whole entry): T1 sequence (P53041 whole entry)

[5] = system: T2, Serine/threonine-protein phosphatase 5 (Homo sapiens), P53041 [E428A]; assay: Activation of PP5 E428A mutant (unknown origin) using pNPP as substrate assessed as increase in phosphatase activity at 10 to 200 uM incubated for 30 mins by spectrophotometric analysis; settings: dose 10-200 µM
[6] = system: T4, Serine/threonine-protein phosphatase 5 (Homo sapiens), P53041 [V429A]; assay: Activation of PP5 V429A mutant (unknown origin) using pNPP as substrate assessed as increase in phosphatase activity at 10 to 200 uM incubated for 30 mins by spectrophotometric analysis; settings: dose 10-200 µM
T4 sequence (whole entry): T1 sequence (P53041 whole entry) with V429A

[7] = molecular target: T3, Serine/threonine-protein phosphatase 5 (Homo sapiens); assay: Induction of thermal stabilization of PP5 in human HCT-116 cells assessed as increase in melting temperature at 100 uM incubated for 12 hrs at 37 to 58 degreeC by CETSA; type: cell-based
HCT-116 [8] = assay: Antiproliferative activity against human HCT-116 cells assessed as inhibition of cell proliferation at 1 to 100 uM incubated for 72 hrs by CCK8 assay; type: functional, cell-based; settings: dose 1-100 µM
HCT-116 [9] = assay: Downregulation of AT13387-induced HSP27 expression in human HCT-116 cells at 50 uM incubated for 24 hrs by Western blot analysis; type: functional, cell-based
HCT-116 [10] = assay: Downregulation of AT13387-induced HSP70 expression in human HCT-116 cells at 50 uM incubated for 24 hrs by Western blot analysis; type: functional, cell-based
HCT-116 [11] = assay: Downregulation of AT13387-induced HSP40 mRNA expression in human HCT-116 cells at 50 uM incubated for 24 hrs by qRT-PCR analysis; type: functional, cell-based
HCT-116 [12] = assay: Downregulation of AT13387-induced HSP70 mRNA expression in human HCT-116 cells at 50 uM incubated for 24 hrs by qRT-PCR analysis; type: functional, cell-based
[13] = Half-life in Sprague-Dawley rat at 10 mg/kg, ip measured after 8 hrs by LC-MS/MS analysis; type: ADME, organism-based; settings: in vivo
[14] = Toxicity in BALB/c nude mouse xenografted with human HCT-116 cells assessed as body weight loss at 30 to 60 mg/kg, ip administered every other day for 14 days in presence of AT13387; type: organism-based; settings: in vivo, 336 h, dose 30-60 mg/kg, time 14 day

EC50 [1]: 52.8 µM | inhibition (Homo sapiens): inactive | Activity [3]: inactive | Activity [4]: Dose-Dependent Effect | Activity [5]: inactive | Activity [6]: inactive | ΔTm [7]: 1.48 °C | half-life [13]: 1.59 h
SMILES: N=c1oc2cc(F)cc(F)c2cc1C(N)=S
Activity (HCT-116 [2]): inactive | Activity (HCT-116 [8]): inactive | Activity (HCT-116 [9]): Active | Activity (HCT-116 [10]): Active | Activity (HCT-116 [11]): Active | Activity (HCT-116 [12]): Active | Activity [14]: Non-Toxic
